Tests used:
Type in all cases: cell-based
[1] = test system: Aspergillus niger ATCC #16404; assay: Challenge test of hand lotion with A. niger and S. cerevisiae (A. niger rating); conditions: 1000 ppm of each compound, A. niger (first figure of cell); for Bacterial Growth Rating 1 wk: 1 week; for Bacterial Growth Rating 2 wk: 2 weeks; for Bacterial Growth Rating 3 wk: 3 weeks; for Bacterial Growth Rating 2 day: 2 days
Protocol: (§1) The samples were tested by the challenge test described below. In this challenge test, samples were stored at room temperatures, inoculated at zero days and streaked at 0 days, 1 day, 2 days, 1 week, 2 weeks and 3 weeks. […] Twenty-five grams of sample are weighed out in one-ounce glass jars. […] Biocide is dissolved into solution before use and different concentrations are prepared by adding the appropriate amount of the biocide solution to the samples. […] A negative control is included using a sample without any biocide. […] Before inoculation, samples are streaked on MYA (malt yeast agar) plates with sterile cotton swabs. The plates are incubated at 30° C. for 48 hours and then read using a bacterial colony counter and rated for microbial growth according to the Growth Rating Chart. […] 5. The inoculum is prepared by adding 9.9 mL sterile 0.85% saline solution to a pure culture slant grown on MYA. A cotton-tipped swab is used to gently rub the surface of the slant to free the cells. […] The yeast and fungus used are: [table] […] Samples are inoculated with 0.05 mL (for 25 g samples) of the An suspension and 0.05 mL of the Sc suspension. 7. Immediately after inoculation, samples are streaked with sterile cotton swabs on MYA plates. The plates are then incubated at 30° C. for 48 hours. The samples are incubated at room temperature. 8. Samples are streaked again at 1 day, 2 days, 1 week, 2 weeks and 3 weeks. 9. All plates are incubated 48 hours at 30° C. then read and rated according to the Growth Rating Chart. Samples are kept at room temperature.

[2] = test system: Saccharomyces cerevisiae #4105; assay: Challenge test of hand lotion with A. niger and S. cerevisiae (S. cerevisiae rating); conditions: 1000 ppm of each compound, S. cerevisiae (second figure of cell); for Bacterial Growth Rating 1 wk: 1 week; for Bacterial Growth Rating 2 wk: 2 weeks; for Bacterial Growth Rating 3 wk: 3 weeks; for Bacterial Growth Rating 2 day: 2 days
Protocol: as §1

Bacteria Pool [3] = assay: Challenge test of hand lotion with bacteria pool; set-up: key to Bacterial Growth Rating 1 day / Bacterial Growth Rating 1 wk / Bacterial Growth Rating 3 wk: 1: 0 (No Growth); 2: 1-4; 3: 5-10; 4: 11-25; 26-50; 6: 51-100; 7: 101-200; 8: 201-300; 9: (TNTC) too numerous to count; 10: (TNTC) solid m; conditions: 1000 ppm of each compound; for Bacterial Growth Rating 1 wk: streaked 1 week after inoculation; for Bacterial Growth Rating 2 wk: streaked 2 weeks after inoculation; for Bacterial Growth Rating 3 wk: streaked 3 weeks after inoculation; for Bacterial Growth Rating 1 day: streaked 1 day after inoculation; for Bacterial Growth Rating 2 day: streaked 2 days after inoculation
Protocol: (§2) The samples were tested by the challenge test described below. In this challenge test, samples were stored at room temperatures, inoculated at zero days and streaked at 0 days, 1 day, 2 days, 1 week, 2 weeks and 3 weeks. […] Twenty-five grams of sample are weighed out in one-ounce glass jars. […] Biocide was dissolved into solution before use and different concentrations are prepared by adding the appropriate amount of the biocide solution to the samples. […] A negative control is included using a sample without any biocide. 4. The bacteria pool inoculum is made fresh on the day of inoculation by using equal volumes of the 24 hour cultures of the ATCC bacteria grown individually in nutrient broth at 30° C. […] 5. Before inoculation, samples are streaked on TSA (tryptic soy agar) plates with sterile cotton swabs. The plates are incubated at 30° C. for 48 hours and then read using a bacterial colony counter and rated for microbial growth according to the Growth Rating Chart. […] Samples are inoculated with 0.05 mL (for 25 g samples) of the […]. […] Immediately after inoculation, samples are streaked with sterile cotton swabs on TSA plates. The plates are then incubated at 30° C. for 48 hours. The samples are incubated at room temperature. 8. Samples are streaked again at 1 day, 2 days, 1 week, 2 weeks and 3 weeks. […] All plates are incubated 48 hours at 30° C. then read and rated according to the Growth Rating Chart. […] Samples are kept at room temperature.

Bacteria Pool [4] = assay: Challenge test of shampoo with bacteria pool; set-up: key: 1: 0 (No Growth); 2: 1-4; 3: 5-10; 4: 11-25; 26-50; 6: 51-100; 7: 101-200; 8: 201-300; 9: (TNTC) too numerous to count; 10: (TNTC) solid m; conditions: 1000 ppm of each compound; for Bacterial Growth Rating 1 wk: streaked 1 week after inoculation; for Bacterial Growth Rating 2 wk: streaked 2 weeks after inoculation; for Bacterial Growth Rating 3 wk: streaked 3 weeks after inoculation; for Bacterial Growth Rating 1 day: streaked 1 day after inoculation; for Bacterial Growth Rating 2 day: streaked 2 days after inoculation
Protocol: as §2

| SMILES | Bacterial Growth Rating 1 wk [1] | Bacterial Growth Rating 2 wk [1] | Bacterial Growth Rating 3 wk [1] | Bacterial Growth Rating 1 day [1] | Bacterial Growth Rating 2 day [1] | Bacterial Growth Rating 1 wk [2] | Bacterial Growth Rating 2 wk [2] | Bacterial Growth Rating 3 wk [2] | Bacterial Growth Rating 1 day [2] | Bacterial Growth Rating 2 day [2] | Bacterial Growth Rating 1 wk (Bacteria Pool [3]) | Bacterial Growth Rating 2 wk (Bacteria Pool [3]) | Bacterial Growth Rating 3 wk (Bacteria Pool [3]) | Bacterial Growth Rating 1 day (Bacteria Pool [3]) | Bacterial Growth Rating 2 day (Bacteria Pool [3]) | Bacterial Growth Rating 1 wk (Bacteria Pool [4]) | Bacterial Growth Rating 2 wk (Bacteria Pool [4]) | Bacterial Growth Rating 3 wk (Bacteria Pool [4]) | Bacterial Growth Rating 1 day (Bacteria Pool [4]) | Bacterial Growth Rating 2 day (Bacteria Pool [4]) |
| --- | --- | --- | --- | --- | --- | --- | --- | --- | --- | --- | --- | --- | --- | --- | --- | --- | --- | --- | --- | --- |
| COc1cc(C=CC(=O)O)ccc1O [ferulic acid, 4-hydroxy-3-methoxycinnamic acid] | 3/3 (5-10) | 4 (11-25) | 3 (5-10) | 4 (11-25) | 4 (11-25) | 3/3 (5-10) | 3 (5-10) | 4 (11-25) | 6 (51-100) | 6 (51-100) | 9 | 6 (51-100) | 9 | 7 (101-200) | 6 (51-100) | 9 | 9 | 9 | 9 | 9 |
| CCc1ccc(O)c(OC)c1 [ethylguaiacol, 4-ethyl-2-methoxyphenol] | 3 (5-10) | 2/2 (1-4) | 3/3 (5-10) | 4/4 (11-25) | 3 (5-10) | 4 (11-25) | 2/2 (1-4) | 3/3 (5-10) | 4/4 (11-25) | 4 (11-25) | 5 (26-50) | 4 (11-25) | 1 (0 (No Growth)) | 9 | 6 (51-100) | 9 | 9 | 9 | 9 | 9 |
| C=Cc1ccc(O)c(OC)c1 [vinylguaiacol, 4-hydroxy-3-methoxystyrene] | 1 (0 (No Growth)) | 1 (0 (No Growth)) | 1 (0 (No Growth)) | 3 (5-10) | 1 (0 (No Growth)) | 2 (1-4) | 1 (0 (No Growth)) | 1 (0 (No Growth)) | 2 (1-4) | 3 (5-10) | 4 (11-25) | 3 (5-10) | 1 (0 (No Growth)) | 4 (11-25) | 3 (5-10) | 8 (201-300) | 9 | 9 | 9 | 9 |
